In patent US20050249818A1, “Polycationic antimicrobial therapeutic” (priority 2004, published 2005):

System: C. albicans #5
Assay type: in vivo
Procedure: Five-week-old female CD-1 mice were purchased from Charles River Laboratories. Mice were placed in cages in groups of five. To immunosuppress the mice and allow for the establishment of mucosal infection, 5-FU was given intravenously once every 7 days, starting on day-2. Antibiotics were given in the drinking water in autoclaved bottles to reduce potential confounding secondary bacterial infections. Gentamycin at 0.2 mg/ml, clindamycin at 1 mg/ml, vancomycin 1 mg/ml were added to sterile drinking water. Bottles and drinking water were changed every day. Imipenem is given at 5 mg/mouse (IP, QD). Antibiotics were begun on day-3.
C. albicans #5 was transferred from storage at −80° C. and streaked for isolation on Sabouraud Dextrose Agar plates with chloramphenicol. The plates were incubated at 35° C. for 48 hours. The organisms were inoculated in sterile bottles each containing 100 ml of SAAMF broth and incubated for 48 hours at 35° C. on a gyratory shaker. C. albicans was harvested by transferring the broth culture to sterile 50 ml centrifuge tubes and centrifuged for 15 minutes at 2000 RPM. The cells were washed once with saline and then suspended in saline. The cells were counted using a hemacytometer. Inoculum dilutions were made in sterile water. The final inoculum was 2×10^8 cells/ml of drinking sterile water plus antibiotics. The inoculum viability determined by plating serial dilutions on SDA plates with chloramphenicol was 1.85×10^8 cells per ml. Plates were incubated overnight at 35° C. for verification count of the inoculum.
In the morning before the preparation of the inoculum the drinking bottles were removed 8 hours prior to replacement with the inoculum suspension of C. albicans. The mice were allowed to drink from this suspension for 24 hours at which time the inoculum suspension was removed and replaced with drinking water containing antibiotics (day 0).
Beginning on day 4 postinfection, mice were untreated or treated with either, Surfacine D™ diluent (undiluted), 3% Surfacine D, PEG dilutent or 1% clotrimazole.
PEG 400, 1% clotrimazole in PEG400, or given no treatment. Treatments were done for 10 consecutive days and were given twice daily. Treatments were done by dipping a sterile calcium alginate swab into the solution and then swabbing the oral cavity of the mouse to ensure coverage with the solution. It was not necessary to anesthetize the animals to perform the treatments. Treatment ended on day 13 postinfection.
On day 15 postinfection all surviving mice were euthanatized using CO2 gas. The tongue of each mouse was swabbed with sterile calcium alginate swab and the swab placed in 0.4 ml of 1×PBS. The swab in PBS was vigorously mixed with a vortex mixer to dissolve the alginate and release the organisms into suspension, and two 10-fold dilutions were made and plated in duplicate on SDA without chloramphenicol.
Survival was analyzed using a log rank test and comparative CFU between groups was analyzed using a Mann-Whitney U test. A log10 value of 6.5 was assigned as CFU for data points missing due to the death of the animal. This value is arbitrarily set to be higher than any burden recovered from surviving mice and assures that death is considered as a worse outcome than is survival regardless of burden.

Clc1ccccc1C(c1ccccc1)(c1ccccc1)n1ccnc1 [1% clotrimazole, clotrimazole]
reduction in CFU in comparison with the untreated controls (CFU recovered from the tongue, day 15 postinfection): ~30 fold | ranking among the treatments (in vivo): most effective of the treatments | behavioral observations during treatments (in vivo, po): did not exhibit these behaviors or symptoms | deaths (mice, oral swab twice daily for 10 days, to day 15 postinfection): one | gross pathological appearance of the tongue mucosal surface at necropsy (surviving mice, day 15 postinfection): normal mucosal surface appearance
